{
  "source": "patent EP1946777A1",
  "about": "“Substituted pyrazoline for preventing weight gain” (Laboratorios del Dr. Esteve S.A., priority 2007, dated 2008)",
  "key": {"rat CB1 receptors": {"biological_target": "T1, rat CB1 receptors (Rattus norvegicus, UniProt P20272)", "T1 construct": "cerebella from male Wistar rats (250-300g) were carefully dissected on ice and homogenates were prepared; from tissue; host or cells: rat cerebellum (male Wistar) membrane homogenate", "T1 sequence (P20272 whole entry)": "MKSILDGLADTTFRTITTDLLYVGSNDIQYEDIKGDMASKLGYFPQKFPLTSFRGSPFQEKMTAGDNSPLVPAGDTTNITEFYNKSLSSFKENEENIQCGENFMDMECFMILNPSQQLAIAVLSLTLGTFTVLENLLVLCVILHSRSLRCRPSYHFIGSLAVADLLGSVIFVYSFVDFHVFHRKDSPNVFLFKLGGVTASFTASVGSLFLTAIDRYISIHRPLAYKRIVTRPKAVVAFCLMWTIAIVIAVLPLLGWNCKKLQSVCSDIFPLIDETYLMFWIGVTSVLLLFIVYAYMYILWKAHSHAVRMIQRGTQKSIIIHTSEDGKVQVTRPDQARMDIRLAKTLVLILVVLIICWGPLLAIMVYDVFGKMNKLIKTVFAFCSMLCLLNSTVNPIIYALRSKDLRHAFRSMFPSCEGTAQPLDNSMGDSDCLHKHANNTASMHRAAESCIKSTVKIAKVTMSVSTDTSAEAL", "assay": "Affinity for rat CB1 receptors: competitive binding of [3H]-CP 55,940 to rat cerebellum membranes", "conditions": "1 nM [3H]-CP 55,940, rat cerebellum membranes, 1 hour at 30°C", "method": "Binding affinity to CB1 receptor was evaluated according to the method of Govaerts et al (2004) with the following modifications Briefly, cerebella from male Wistar rats (250-300g) were carefully dissected on ice and homogenates were prepared in cold 50 mM Tris-HCl, 5 mM MgCl2, 1 mM EDTA, 0.25 M sucrose, pH 7.4 with a Potter-Heljheim homogenizer and the suspension was centrifuged at 1,000 x g for 5 minutes. The supernatants were collected and centrifuged 50,000 x g for 15 min. The resulting pellets were resuspended in Tris-HCl buffer without sucrose, homogenized and incubated for 15 min at 37°C in an orbital shaker bath and centrifuged again at 50,000 x g for 15 min. Pellets were weighed, resuspended in Tris-HCl buffer without sucrose, homogenized with an Ultraturrax at 13,500 rpm for 3 x 5 seconds and aliquoted in 0.9 ml volumes in Eppendorf tubes. Aliquots were centrifuged at 20,800 x g for 5 minutes, supernatants discarded and pellets were frozen at -80°C until use. Total protein concentration was determined using a Bio-Rad commercial assay base on the Lowry method. […]\nBinding data were analyzed by non-linear regression with the software GraphPad Prism Version 3.03."}, "[1]": {"conditions": "Figure 5; cited from earlier work"}, "[2]": {"conditions": "Figure 4; cited from earlier work"}},
  "note": "Where two headings read alike, the source gives them in different places.",
  "data": [
    {"compound": "O=C(NN1CCCCC1)C1=NN(c2ccc(Cl)cc2Cl)C(c2ccc(Cl)cc2)C1", "note": "(stereo not shown) [Subgroup A1, Chemical example 1]", "values": [
      {"measurement": "IC50", "setting": "rat CB1 receptors; read-out: IC50", "result": 26, "unit": "nM"},
      {"measurement": "IC50", "setting": "rat CB1 receptors; read-out: pIC50 (converted)", "result": 22.4, "unit": "nM"}
    ]},
    {"compound": "Cc1c(C(=O)NN2CCCCC2)nn(-c2ccc(Cl)cc2Cl)c1-c1ccc(Cl)cc1", "note": "[rimonabant]", "values": [
      {"measurement": "ability to prevent antipsychotic-induced weight-gain", "setting": "[1]", "result": "only partially effective"}
    ]},
    {"compound": "CC(C)CC(N(C)C)C1(c2ccc(Cl)cc2)CCC1", "note": "(stereo not shown) [sibutramine]", "values": [
      {"measurement": "prevention of antipsychotic-induced weight-gain", "setting": "[2]", "result": "Partial prevention of antipsychotic-induced weight-gain"}
    ]}
  ]
}
